In BindingDB's records for doi:10.7270/Q2K072NW (Sanford-Burnham Center for Chemical Genomics, 2008) one finds IC50 data, which are given here for 12 compounds.

Each structure is given as a SMILES string. Bounds are passed on as bounds.

The target of the test is T1, Bcl-2-related protein A1 (Mus musculus, UniProt Q07440).
T1 sequence (Q07440 whole entry): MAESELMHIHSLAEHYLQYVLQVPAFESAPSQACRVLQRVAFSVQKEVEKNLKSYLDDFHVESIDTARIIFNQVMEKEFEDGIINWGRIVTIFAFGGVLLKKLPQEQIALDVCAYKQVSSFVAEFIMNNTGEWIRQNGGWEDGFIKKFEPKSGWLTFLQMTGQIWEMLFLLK
Kind of test: Bfl-1 inhibitors blocking BH3 peptide binding, confirmation, biochemical, TR-FRET, mouse Bfl-1 (AID 621). A general note: TR-FRET usually uses a lanthanide donor and a delayed reading to cut background.

`O=C1C(=Nc2ccc(F)cc2)C(Cl)C(=O)N1c1ccc(Cl)c(Cl)c1` (configuration not stated) [3-chloranyl-1-(3,4-dichlorophenyl)-4-[(4-fluorophenyl)amino]pyrrole-2,5-dione] displayed an IC50 of 96.5 µM.
In turn, `Cc1ccc(N=C2C(=O)N(c3ccc(C)cc3)C(=O)C2Cl)cc1` (configuration not stated) [3-chloranyl-1-(4-methylphenyl)-4-[(4-methylphenyl)amino]pyrrole-2,5-dione] displayed an IC50 of 2.54 µM. This IC50 is about 38-fold lower than that of the compound before.
Turning to `Cc1ccc(C2C3CN(C(C)C)CCC3=C(C#N)C(=N)C2(C#N)C#N)cc1` (configuration not stated) [SMR000034220], the IC50 is > 100 µM.
With `O=C1C(=O)N(c2ncccn2)C(c2cccc(Cl)c2)C1C(=O)c1ccco1` (configuration not stated) [2-(3-chlorophenyl)-3-(furan-2-carbonyl)-4-hydroxy-1-pyrimidin-2-yl-2H-pyrrol-5-one] the figure was > 100 µM.
For the compound `c1ccc(-c2ccc(C3=Nc4ncnn4C(c4ccco4)C3)cc2)cc1` (configuration not stated), the IC50 was > 100 µM.
The figure for `CCCN1CCC2=C(C#N)C(=N)C(C#N)(C#N)C(c3cccc(OC)c3OC)C2C1` (configuration not stated) [6-amino-8-(2,3-dimethoxyphenyl)-2-propyl-1,3,8,8a-tetrahydroisoquinoline-5,7,7-tricarbonitrile] is > 100 µM; for `OCCCc1nc2n(n1)C(c1cccs1)CC(c1ccccc1)=N2` (configuration not stated) [3-(5-phenyl-7-thiophen-2-yl-1,7-dihydro-[1,2,4]triazolo[1,5-a]pyrimidin-2-yl)-1-propanol] it is > 100 µM.
The figure for `Oc1c(Cl)c(N=Cc2ccccc2)c(O)n1-c1ccc(Cl)c(Cl)c1` [MLS-0067125.0001] is 73.7 µM; for `CN1CCC2=C(C#N)C(=N)C(C#N)(C#N)C(c3cccc(Cl)c3Cl)C2C1` (configuration not stated) [6-azanyl-8-[2,3-bis(chloranyl)phenyl]-2-methyl-1,3,8,8a-tetrahydroisoquinoline-5,7,7-tricarbonitrile] it is > 100 µM.
`COCC=Nc1c(Cl)c(O)n(-c2ccc(Cl)c(Cl)c2)c1O` [3-chloranyl-1-(3,4-dichlorophenyl)-4-(2-methoxyethylamino)pyrrole-2,5-dione] gave an IC50 of 4.96 µM.
With `COc1ccc(N2C(=O)C(=Nc3c(C)n(C)n(-c4ccccc4)c3=O)C(Cl)C2=O)cc1` (configuration not stated) [3-chloranyl-4-[(1,5-dimethyl-3-oxidanylidene-2-phenyl-pyrazol-4-yl)amino]-1-(4-methoxyphenyl)pyrrole-2,5-dione] the figure was > 100 µM; with `CN1CCC2=C(C#N)C(=N)C(C#N)(C#N)[C@H](c3cccc(Cl)c3)C2C1` (stereo partly drawn) [(8S)-6-amino-8-(3-chlorophenyl)-2-methyl-1,3,8,8a-tetrahydroisoquinoline-5,7,7-tricarbonitrile], > 100 µM.

Usually IC50 stands for the midpoint of a concentration-inhibition curve. Read a high IC50 as lower potency.
